# Experimental data as given in the supplement of paper PMC10331698.
# ± gives the standard deviation of the averaged measurements.
# What was measured:
# Assay in all cases: level (log10 ratio to DMSO vehicle control); higher = higher biomarker level / cell amount than vehicle control
# Conditions in all cases: in DMSO
# [1] = compound: O=C(O)C(F)(F)C(F)(F)C(F)(F)C(F)(F)C(F)(F)C(F)(F)F [Perfluoroheptanoic acid]
# Protocol: (§1)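 BioMAP Diversity Plus panel of 12 human primary cell co-culture systems (3C, 4H, LPS, SAg, BT, BF4T, BE3C, CASM3C, HDF3CGF, KF3CT, MyoF, Mphg). Compounds were added 1 h before stimulation and left for 24 h (MyoF 48 h; BT 72 h for soluble read-outs or 6 d for IgG). Biomarkers were read by ELISA, cytotoxicity by SRB, PBMC viability and proliferation by Alamar Blue. Each well value was divided by the mean of 8 DMSO control wells on the same plate and log10 transformed; duplicate blinded samples were tested at 4 concentrations.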
# [2] = compound: NC(=O)C(F)(F)C(F)(F)C(F)(F)F [Heptafluorobutyramide]
# Protocol: as §1
# [3] = compound: O=C(O)C(F)(F)C(F)(F)C(F)(F)C(F)(F)C(F)(F)C(F)(F)C(F)(F)C(F)(F)C(F)(F)F [Perfluorodecanoic acid]
# Protocol: as §1
# [4] = compound: O=C(O)C(F)(F)OC(F)(F)C(F)(F)OC(F)(F)F [Perfluoro-3,6-dioxaheptanoic acid]
# Protocol: as §1
# [5] = compound: NC(=O)C(F)(F)C(F)(F)F [Pentafluoropropionamide]
# Protocol: as §1
# [6] = compound: C=CC(=O)OCC(F)(F)C(F)(F)C(F)(F)C(F)(F)C(F)(F)C(F)(F)C(F)(F)F [1H,1H-Perfluorooctyl acrylate]
# Protocol: as §1
# [7] = compound: C=C(C)C(=O)OCCC(F)(F)C(F)(F)C(F)(F)C(F)(F)C(F)(C(F)(F)F)C(F)(F)F [(Perfluoro-5-methylhexyl)ethyl 2-methylprop-2-enoate]
# Protocol: as §1
Test System,level (log10) ([1]; 6700 nM),level (log10) ([1]; 20000 nM),level (log10) ([1]; 60000 nM),level (log10) ([2]; 6700 nM),level (log10) ([2]; 20000 nM),level (log10) ([2]; 60000 nM),level (log10) ([3]; 6700 nM),level (log10) ([3]; 20000 nM),level (log10) ([4]; 6700 nM),level (log10) ([4]; 20000 nM),level (log10) ([4]; 60000 nM),level (log10) ([5]; 6700 nM),level (log10) ([5]; 20000 nM),level (log10) ([5]; 60000 nM),level (log10) ([6]; 6700 nM),level (log10) ([6]; 20000 nM),level (log10) ([6]; 60000 nM),level (log10) ([7]; 6700 nM),level (log10) ([7]; 20000 nM)
MyoF:alpha-SM Actin,-0.028 ± 0.035,-0.0365 ± 0.022,-0.022 ± 0.024,0.0105 ± 0.033,-0.004 ± 0.033,0.0015 ± 0.018,0.031 ± 0.027,-0.04 ± 0.016,-0.013 ± 0.0071,-0.027 ± 0.034,-0.0095 ± 0.018,-0.007 ± 0.02,-0.0135 ± 0.019,-0.0195 ± 0.018,0.016 ± 0.0085,-0.0215 ± 0.032,-0.0185 ± 0.039,-0.018 ± 0.037,-0.0255 ± 0.04
KF3CT:MMP-9,-0.0065 ± 0.0078,0.0165 ± 0.026,0.059 ± 0.025,0.002,-0.0005 ± 0.00071,0.0035 ± 0.00071,-0.103 ± 0.037,-0.308 ± 0.0028,-0.0195 ± 0.033,-0.0205 ± 0.05,-0.028 ± 0.034,-0.0375 ± 0.012,-0.0255 ± 0.00071,-0.0105 ± 0.012,-0.0245 ± 0.00071,-0.0225 ± 0.019,-0.014 ± 0.014,-0.0045 ± 0.037,-0.027 ± 0.041
CASM3C:LDLR,0.0175 ± 0.0092,0.012 ± 0.016,0.0125 ± 0.039,-0.017 ± 0.0014,-0.0145 ± 0.0064,0.024 ± 0.047,-0.0045 ± 0.0078,0.0105 ± 0.03,-0.0145 ± 0.033,-0.013 ± 0.037,-0.0015 ± 0.005,0.003 ± 0.042,0.0045 ± 0.011,0.0295 ± 0.015,0.011,0.006 ± 0.0099,0.016 ± 0.016,-0.032 ± 0.03,0.018 ± 0.025
MyoF:MMP-1,-0.0175 ± 0.0064,-0.0245 ± 0.011,0.021 ± 0.061,-0.0185 ± 0.018,-0.0105 ± 0.049,0.027 ± 0.082,-0.0005 ± 0.023,-0.048 ± 0.0057,-0.0045 ± 0.0021,-0.0545 ± 0.013,0.041 ± 0.054,-0.0305 ± 0.063,-0.0255 ± 0.0064,0.016 ± 0.058,-0.0135 ± 0.019,-0.016,0.0275 ± 0.005,-0.023 ± 0.0057,-0.0365 ± 0.074
CASM3C:CD106/VCAM-1,-0.0085 ± 0.0035,-0.0135 ± 0.021,0.012 ± 0.054,-0.0215 ± 0.053,-0.0085 ± 0.033,-0.0265 ± 0.059,0.0015 ± 0.0092,-0.036 ± 0.0085,0.0345 ± 0.029,0.0105 ± 0.037,-0.06 ± 0.021,-0.016 ± 0.016,-0.014 ± 0.02,-0.022 ± 0.011,0.007 ± 0.016,0.014 ± 0.0014,-0.0055 ± 0.0092,-0.017 ± 0.014,-0.0175 ± 0.026
HDF3CGF:M-CSF,-0.009 ± 0.0099,0.0025 ± 0.015,0.01 ± 0.0014,-0.0145 ± 0.00071,-0.009,0.0165 ± 0.035,0.023 ± 0.0057,-0.275 ± 0.018,-0.015 ± 0.0099,-0.013 ± 0.0042,-0.0105 ± 0.05,0.0015 ± 0.011,-0.0135 ± 0.0035,0.0085 ± 0.06,0.0085 ± 0.015,-0.006 ± 0.0057,-0.053 ± 0.069,-0.0175 ± 0.0078,-0.0175 ± 0.0035
HDF3CGF:Proliferation 72hr,-0.054 ± 0.033,0.0515 ± 0.098,-0.018 ± 0.018,0.0015 ± 0.088,0.016 ± 0.041,-0.0205 ± 0.053,0.115 ± 0.025,-0.934 ± 0.037,0.0205 ± 0.05,0.055 ± 0.034,0.06 ± 0.0014,0.0225 ± 0.018,0.045 ± 0.042,0.076 ± 0.013,0.0035 ± 0.0092,-0.056 ± 0.078,-0.168 ± 0.0092,-0.015 ± 0.0028,-0.014
CASM3C:M-CSF,-0.004 ± 0.028,-0.005 ± 0.028,0.0035 ± 0.049,-0.0495 ± 0.0035,-0.0375 ± 0.018,0.022 ± 0.073,0.0145 ± 0.0078,0.0345 ± 0.019,-0.09 ± 0.035,-0.02 ± 0.023,0.034 ± 0.0014,-0.021 ± 0.038,-0.0125 ± 0.00071,0.0205 ± 0.035,-0.0205 ± 0.032,0.0135 ± 0.00071,-0.0075 ± 0.0021,-0.009 ± 0.0085,0.0195 ± 0.036
CASM3C:PAI-I,-0.0005 ± 0.018,0.0035 ± 0.011,0.0105 ± 0.015,-0.0045 ± 0.0021,-0.0045 ± 0.012,0.0105 ± 0.0035,0.001 ± 0.0014,-0.0015 ± 0.005,-0.004 ± 0.0099,-0.013 ± 0.024,-0.0105 ± 0.018,-0.009 ± 0.0099,-0.007 ± 0.014,0.0005 ± 0.0064,0 ± 0.0014,-0.0075 ± 0.011,0.004 ± 0.0057,-0.004 ± 0.0014,0.002 ± 0.0014
CASM3C:CD142/Tissue Factor,-0.0065 ± 0.012,0.015 ± 0.016,0.015 ± 0.071,0.007 ± 0.034,-0.0105 ± 0.05,-0.031 ± 0.041,0.008 ± 0.0042,-0.0055 ± 0.012,-0.049 ± 0.089,-0.0195 ± 0.097,0.014 ± 0.088,-0.0025 ± 0.022,-0.0095 ± 0.018,-0.0295 ± 0.026,0.0095 ± 0.005,-0.004 ± 0.0014,-0.0005 ± 0.0092,-0.037 ± 0.024,-0.0265 ± 0.056
HDF3CGF:SRB,-0.029 ± 0.016,0.0125 ± 0.064,-0.045 ± 0.052,0.018 ± 0.0014,0.0035 ± 0.025,0.0075 ± 0.03,0.0725 ± 0.044,0.131 ± 0.016,0 ± 0.013,-0.015 ± 0.018,0.0175 ± 0.039,-0.0105 ± 0.011,0.0265 ± 0.079,0.0445 ± 0.086,-0.003 ± 0.0099,0.0015 ± 0.025,0.0115 ± 0.0092,0.0055 ± 0.0092,0.008 ± 0.0028
KF3CT:CXCL10/IP-10,-0.003 ± 0.018,0.0125 ± 0.026,0.0155 ± 0.023,0.002 ± 0.0042,0.0015 ± 0.0078,0.005 ± 0.0099,-0.044 ± 0.017,-0.134 ± 0.028,-0.0085 ± 0.00071,-0.0055 ± 0.005,0.003 ± 0.013,-0.007 ± 0.0014,0 ± 0.0028,-0.0145 ± 0.0035,0.0055 ± 0.0035,0 ± 0.0071,-0.003 ± 0.014,-0.0085 ± 0.012,-0.0325 ± 0.00071
lMphg:SRB,-0.013 ± 0.02,-0.01 ± 0.0028,-0.002 ± 0.0014,-0.015 ± 0.0099,-0.0025 ± 0.005,0 ± 0.02,0.009 ± 0.0085,0.004 ± 0.0057,-0.0015 ± 0.0092,0.0025 ± 0.011,-0.002 ± 0.016,0.004 ± 0.0071,-0.0025 ± 0.0092,-0.001 ± 0.0014,-0.006 ± 0.0071,-0.013 ± 0.016,-0.0035 ± 0.012,-0.0035 ± 0.0035,-0.0105 ± 0.0021
lMphg:CCL2/MCP-1,-0.0365 ± 0.021,-0.019 ± 0.0042,0.027 ± 0.023,-0.0035 ± 0.0021,-0.001 ± 0.038,0.0175 ± 0.042,0.001 ± 0.0042,0.0095 ± 0.023,0.0035 ± 0.00071,-0.006 ± 0.0099,0 ± 0.0042,-0.0145 ± 0.0035,-0.012 ± 0.0042,0 ± 0.03,-0.0065 ± 0.039,-0.016 ± 0.0057,0.002 ± 0.03,0.014 ± 0.0099,0.0175 ± 0.037
HDF3CGF:CD106/VCAM-1,-0.034 ± 0.027,-0.0135 ± 0.029,-0.021 ± 0.038,0.0035 ± 0.0092,-0.012 ± 0.018,-0.0345 ± 0.054,-0.0085 ± 0.026,-0.623 ± 0.057,-0.033 ± 0.024,0.023 ± 0.082,-0.039 ± 0.061,-0.0335 ± 0.022,-0.0305 ± 0.025,-0.0225 ± 0.044,-0.016 ± 0.011,-0.031 ± 0.013,-0.097 ± 0.0057,0.02 ± 0.023,-0.0275 ± 0.011
